Patent US6916852B2, “Method for regulation of microvascular tone” (University of Tennessee Research Foundation, priority 2003, dated 2005)
Read-outs that look alike come from different tables or passages of the source.

Columns and labels:
cremaster arterioles = assay: Intravital microscopy of cremaster muscle arterioles; assay type: in vivo, C57-BL mice
Method: Male C57-BL mice age 7-8 weeks and weighing approximately 20 grams are anesthetized with an intramuscular injection of 100 to 150 microliters of a mixture of ketamine and xylazine (87 mg ketamine and 13 mg xylazine per ml) based on the weight of the individual animal. The body temperature was maintained at about 37° C. by convective heating. The animal is supinated, a midline incision is made in the ventrocervical region, and the underlying tissues are bisected laterally to expose the trachea. A tracheotomy is performed and the animal is intubated directly with PE50 tubing to facilitate ventilation. The wound is then closed.
The left rear limb is incised to expose the femoral neurovascular bundle and the femoral vein is isolated and catheterized with PE10 tubing attached to a syringe containing normal saline. The animal is then placed on a specially designed surgery board and the right testicle within the scrotum is oriented over a translumination observation window contained in the surgery board. The scrotum is irrigated with warmed (about 37° C.) physiological saline (4.3 mM NaHCO3, 126.4 mM NaCl, 0.9 mM KCl, 0.4 mM CaCl2, 0.2 mM MgSO4). The scrotum is incised medially and the underlying fascia is bluntly dissected to expose the testicle. The apical portion of the cremaster muscle is pinned distally on the surgery board and the cremaster muscle is incised along its long axis to expose the testicle. The testicle is then gently forced back into the inguinal canal, allowing the cremaster muscle to be pinned evenly around the translumination window.
(§1) All experiments are carried out using an industrial grade microscope (Nikon MM-11) with two light sources, bright field (OptiQuip 75 W xenon) and fluorescent (Nikon 150 W mercury). The primary camera assembly has a chilled charged coupled device (CCD) and controller (Hamamastu C5985). The secondary camera assembly has a CCD camera (MTI CCD72) in conjunction with an intensifier (MTI […]). Experiments are viewed on a video monitor and recorded on a digital video recorder for off-line processing.
The prepared animal, as described above in Examples 1 and 2, is placed on the stage of the microscope on the surgery board with the translumination window. Exposed tissues are irrigated with warmed physiological saline through which a N2/CO2 (95%/5%) mixture is bubbled. The tissue is allowed to equilibrate until normal blood flow is observed or perfusate flow stabilizes, during which time the tissue is scanned at 1-X for A1-A4 arterioles. The arterioles are then tested for physiological tone by the topical administration of 0.1 mM adenosine (positive control).
(§2) After the arteriole returns to resting diameter (about 10 minutes) the tissue is treated topically with test chemical drugs or the drugs are administered systemically and the responses of the arterioles are viewed at 20× magnification. Topical treatment is by directly applying a vehicle solution (1:1:18 stepantex:ethanol:saline) or a drug plus vehicle solution. Systemic treatments in the whole animal are administered through the femoral vein catheter. The arteriole is video recorded during the entire procedure for off-line analysis. The blood pressure is monitored throughout the procedure utilizing a 1.4 F (0.56 mm) Millar catheter pressure transducer inserted into the left ventricle via the aorta. Systolic and diastolic blood pressure, and heart rate are recorded. Drug dosing regimens for the animals are based on literature values or values experimentally determined via drug titration curves on a mg/kg basis.
The video images of Example 3 are analyzed off-line by first converting the digital AVI files into digital image files followed by analysis using MetaMorph software (Universal Imaging Co.) on a Dell Optiplex GX-1. Calibration of the software is done using a micrometer slide and measurements are defined in micrometers/pixel. […]

cannabinoid receptors = settings: cited from earlier work; for effect on blood pressure, intra-arterially administered (Adams): intra-arterial; for effect on blood pressure, intravenously administered (Adams): intravenous
[1] = rats subsequently bled; doubled from about 30 minutes; cited from earlier work
mesenteric arterioles = assay: Intravital microscopy of mesenteric arterioles; assay type: in vivo, C57-BL mice; settings: topical
Method: Animals as described in Example 1 are prepared for surgery as described in Example 1. The animal is supinated on the surgery board so that the ventral portion of the animal faces the observation window. Upon irrigation with warmed physiological saline, a midline incision is made through the linea alba. A loop of small intestine from the lower duodenal segment is extracted and pinned around the observation window, with the pins passing through the proximal mesentery and not through the intestine proper.
as §1, with “processing. […]” for “processing.”
as §2, with “Topical treatment is by directly applying a vehicle solution (1:1:18 stepantex:ethanol:saline) or a drug plus vehicle solution. Systemic treatments in the whole animal are administered through the femoral vein catheter.” left out
The video images of Example 3 are analyzed off-line by first converting the digital AVI files into digital image files followed by analysis using MetaMorph software (Universal Imaging Co.) on a Dell Optiplex GX-1. […]
Data analysis is carried out using GraphPad, Prism software. […] Time course curves are fit using non-linear regression from which the rate of vessel constriction or dilation is calculated. […]

[2] = cited from earlier work; for changes in blood pressure or renal function (Dilger): therapeutic doses for 15 days, healthy young or elderly subjects
[3] = systemically administered, 2 mg/kg NS-398

CCCCC/C=C\C/C=C\C/C=C\C/C=C\CCCC(=O)NCCO [ANA, arachidonyl ethanolamide]
change in cremaster arteriolar diameter (FIG. 5B) (cremaster arterioles; systemically administered, by about 200 seconds post-administration): causes a dilatation of cremaster arterioles
change in cremaster arteriolar diameter (FIG. 5A) (cremaster arterioles; topically administered, by about 200 seconds post-administration): causes a dilatation of cremaster arterioles
effect on blood pressure (Kunos, U.S. Pat. No. 5,939,429) (cannabinoid receptors; in vivo): causes hypotension

CCCCCCC(C)(C)c1cc(O)c2c(c1)OC(C)(C)[C@@H]1CC=C(CO)C[C@@H]21 [HU-210]
survival time (Wagner) [1]: ~60 min

CS(=O)(=O)Nc1ccc([N+](=O)[O-])cc1OC1CCCCC1 [NS-398, N-(2-cyclohexyloxy-4-nitrophenyl) methane sulphonamide]
initial increase in arteriolar diameter (FIG. 2) (cremaster arterioles; [3]): ~8%
time to return to baseline diameter (FIG. 2) (cremaster arterioles; [3]): ≤ 3 min

CCCCCc1cc(O)c2c(c1)OC(C)(C)[C@@H]1CC=C(C)C[C@@H]21 [THC, Δ^8-tetrahydrocannabinol]
time post-administration of return to baseline diameter (FIG. 3B) (cremaster arterioles; systemic, 12 mg/kg THC alone): about 30 seconds
initial mild constriction of arterioles (FIG. 3B) (cremaster arterioles; systemic, initial 100 seconds): about 15%
response of cremaster arterioles to topical application (FIG. 3A) (cremaster arterioles; topical): mirrors that of the response to systemic administration of THC
duration of initial brief constriction (FIG. 4) (mesenteric arterioles): less than 5 seconds
response of mesenteric arterioles (FIG. 4) (mesenteric arterioles): biphasic response
time post administration of return to baseline (FIG. 4) (mesenteric arterioles): about 100 seconds
effect on blood pressure, intra-arterially administered (Adams) (cannabinoid receptors): produced an increase in blood pressure indicative of vasoconstriction
effect on blood pressure, intravenously administered (Adams) (cannabinoid receptors): transient increase in blood pressure that lasted only about one minute and that was followed by a more prolonged hypotensive response
effect on blood pressure, intravenously administered (Adams) (cannabinoid receptors; listed as Δ^8-tetrahydrocannabinol): caused decreases in blood pressure
survival time (Wagner) [1]: ~60 min

Nc1ncnc2c1ncn2[C@@H]1O[C@H](CO)[C@@H](O)[C@H]1O [adenosine]
change in arteriole diameter (FIG. 1B) (cremaster arterioles; topical administration of adenosine, cremaster arteriole): Dilation of the arteriole

Cc1ccc(-c2cc(C(F)(F)F)nn2-c2ccc(S(N)(=O)=O)cc2)cc1 [celecoxib]
effect on blood pressure (Johnson) ([2]; patients, administered for six weeks): inconclusive
changes in blood pressure or renal function (Dilger) [2]: not associated with significant changes in blood pressure or renal function

O=C(O)Cc1ccccc1Nc1c(Cl)cccc1Cl [diclofenac]
changes in blood pressure or renal function (Dilger) [2]: not associated with significant changes in blood pressure or renal function

CS(=O)(=O)c1ccc(C2=C(c3ccccc3)C(=O)OC2)cc1 [rofecoxib]
effect on blood pressure (Johnson) ([2]; in vivo): found to elevate blood pressure

CCCCCc1cc(O)c2c(c1)OC(C)(C)[C@@H]1CCC(C)=C[C@@H]21 [Δ^9-tetrahydrocannabinol]
effect on blood pressure, intra-arterially administered (Adams) (cannabinoid receptors): produced an increase in blood pressure indicative of vasoconstriction
effect on blood pressure, intravenously administered (Adams) (cannabinoid receptors): caused decreases in blood pressure
